Earlier results as cited in US6555228B2, “Bio-supportive medium, and methods of making and using the same” (priority 2000, dated 2003).

How the values were obtained:
Torla (=Candida) utilis = settings: pH 7, simple form
Ophyotrocha Labronica = settings: 0.1 mg L^−1 of copper
Artemia salina = settings: 1.0 mg L^−1 of copper
several dinoflagelates = settings: until organic chelation occurs
[1] = test system: other classes of organisms
[2] = test system: Barnacles and zebra mussels
[3] = test system: Thalassiosira weissflogii; settings: very low concentrations

| Compound | amount of copper toxic to Torla (=Candida) utilis (Torla (=Candida) utilis) [mg] | growth rate of Ophyotrocha Labronica (Ophyotrocha Labronica) | growth rate of Artemia salina (Artemia salina) | generally available copper with no measurable negative effect (most habitats) | effect of copper on dinoflagelates (several dinoflagelates) | lethal dose (some species) [ppm] | concentration at which biolimiting occurs [1] [ppm] | tolerance of copper [2] | effect of zinc ion activity on growth [3] |
| --- | --- | --- | --- | --- | --- | --- | --- | --- | --- |
| [Cu+2] [copper] | 20 | decreased significantly | no change | below 0.62 mg/l | inhibit | 10 | ≥ 40 | can not tolerate any copper |  |
| [Zn+2] [zinc] |  |  |  |  |  |  |  |  | growth limiting effect |
